Patent US4248882A, “Treating diabetes-associated complications with hydantoin amines” (Pfizer Inc., priority 1980, dated 1981)
Counter-ions that a name gives are not always drawn.

How the values were obtained:
[1] = tested on: sorbitol accumulation in the sciatic nerve; experiment: inhibition of sorbitol accumulation in the sciatic nerve of streptozotocinized (diabetic) rats; assay type: in vivo; details: oral 0.25 mg/kg at 4, 8 and 24 hours following streptozotocin; sorbitol in sciatic nerves measured 27 hours after induction of diabetes; versus untreated animal
Protocol: The compounds of Example 2 and 4 were tested for their ability to reduce or inhibit sorbitol accumulation in the sciatic nerve of streptozotocinized (i.e. diabetic) rats by the procedure essentially described in U.S. Pat. No. 3,821,383. In the present study, the amount of sorbitol accumulation in the sciatic nerves was measured 27 hours after induction of diabetes. The compounds were administered orally at the dose levels of 0.25 mg/kg at 4, 8 and 24 hours following the administration of streptozotocin. The results obtained in this manner are presented below in terms of percent inhibition (%) afforded by the test compound as compared to the case where no compound was administered (i.e. the untreated animal, where sorbitol levels normally rise from approximately […]. tissue to as high as 400 mM/g. tissue in the 27 hour test period): […]

aldose reductase = experiment: inhibition of aldose reductase enzyme activity (partially purified enzyme from human placenta); assay type: biochemical; details: percent inhibition of enzyme activity
Protocol: The compounds of Example 2 and 4 were tested for their ability to reduce or inhibit aldose reductase enzyme activity, following the procedure described in U.S. Pat. No. 3,821,383 and based on the procedure of Hayman et. al., Journal of Biological Chemistry, 240 877 (1965). The substrate employed was partially purified aldose reductase enzyme obtained from human placenta. The results obtained with each compound at a concentration of 10^-6 M are expressed as percent inhibition of enzyme activity.

Row | Compound | % Inhibition at 0.25 mg/kg [1] [%] | % Inhibition at 10^-6 M (aldose reductase) [%]
1 | Nc1cc(Cl)cc2c1OCCC21NC(=O)NC1=O (stereo not shown) [Example 2, 8-Amino-6-chloro-spiro[4H-2,3-dihydro-1-benzopyran-4,4'-imidazolidine]-2',5'-dione hydrochloride] | 17 | 58
2 | Nc1cc(F)cc2c1OCC[C@]21NC(=O)NC1=O [Example 4, 4S-8-amino-6-fluoro-spiro[4H-2,3-dihydro-1-benzopyran-4,4'-imidazolidine]-2',5'-dione hydrochloride] | 40 | 40
